Results: article PMC6979384, “Characterization of the plant homeodomain (PHD) reader family for their histone tail interactions” (Epigenetics & Chromatin, 2020)
Entries after “also recorded” stand apart in the source; their conditions may differ.

Tests used:
Test in all cases: Histone peptide microarray
Assay type in all cases: binding, human
AIRE (PP) = conditions: GST-tagged AIRE (PP); sheet Array Heatmap; each array performed twice, total n = 4
Method in brief: (§1)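 Binding read as mean relative signal from 4 replicates; microarray held 293 synthetic histone peptides with single or combinatorial PTMs. Each GST-tagged PHD reader was applied at 0.5 μM using the optimized Petell protocol.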

BAZ2B = conditions: GST-tagged BAZ2B; sheet Array Heatmap; each array performed twice, total n = 4
Method in brief: as §1

BPTF (PB) = conditions: GST-tagged BPTF (PB = PHD + Bromodomain); sheet Array Heatmap; each array performed twice, total n = 4
Method in brief: as §1

CHD4 (PPCC) = conditions: for Array Heatmap signal (histone peptide microarray): GST-tagged CHD4 (PPCC = Dual PHD + Dual Chromodomain), sheet Array Heatmap, each array performed twice, total n = 4
Method in brief: as §1

CHD5 (PCC) = conditions: GST-tagged CHD5 (PCC = PHD + Dual Chromodomain); sheet Array Heatmap; each array performed twice, total n = 4
Method in brief: as §1

CHD5 (PPCC) = conditions: GST-tagged CHD5 (PPCC = Dual PHD + Dual Chromodomain); sheet Array Heatmap; each array performed twice, total n = 4
Method in brief: as §1

DIDO1 = conditions: GST-tagged DIDO1; sheet Array Heatmap; each array performed twice, total n = 4
Method in brief: as §1

DPF2 (PPC2W2) = conditions: GST-tagged DPF2 (PPC2W2 = Dual PHD + C2W2-type Zn-finger); sheet Array Heatmap; each array performed twice, total n = 4
Method in brief: as §1

ING2 = conditions: GST-tagged ING2; sheet Array Heatmap; each array performed twice, total n = 4
Method in brief: as §1

ING3 = conditions: GST-tagged ING3; sheet Array Heatmap; each array performed twice, total n = 4
Method in brief: as §1

ING4 = conditions: GST-tagged ING4; sheet Array Heatmap; each array performed twice, total n = 4
Method in brief: as §1

ING5 = conditions: GST-tagged ING5; sheet Array Heatmap; each array performed twice, total n = 4
Method in brief: as §1

KDM4C (TTP) = conditions: GST-tagged KDM4C (TTP = Tandem Tudor domain + PHD); sheet Array Heatmap; each array performed twice, total n = 4
Method in brief: as §1

KDM5A (1) = conditions: GST-tagged KDM5A (1); sheet Array Heatmap; each array performed twice, total n = 4
Method in brief: as §1

KDM5B (1) = conditions: GST-tagged KDM5B (1); sheet Array Heatmap; each array performed twice, total n = 4
Method in brief: as §1

KDM5B (3) = conditions: GST-tagged KDM5B (3); sheet Array Heatmap; each array performed twice, total n = 4
Method in brief: as §1

MLL5 = conditions: GST-tagged MLL5; sheet Array Heatmap; each array performed twice, total n = 4
Method in brief: as §1

PHF13 = conditions: GST-tagged PHF13; sheet Array Heatmap; each array performed twice, total n = 4
Method in brief: as §1

PHF21A = conditions: GST-tagged PHF21A; sheet Array Heatmap; each array performed twice, total n = 4
Method in brief: as §1

PHF23 = conditions: GST-tagged PHF23; sheet Array Heatmap; each array performed twice, total n = 4
Method in brief: as §1

PHF2 = conditions: GST-tagged PHF2; sheet Array Heatmap; each array performed twice, total n = 4
Method in brief: as §1

PHF8 = conditions: GST-tagged PHF8; sheet Array Heatmap; each array performed twice, total n = 4
Method in brief: as §1

PHRF1 (RP) = conditions: for Array Heatmap signal (histone peptide microarray): GST-tagged PHRF1 (RP), sheet Array Heatmap, each array performed twice, total n = 4
Method in brief: as §1

RAG2 = conditions: GST-tagged RAG2; sheet Array Heatmap; each array performed twice, total n = 4
Method in brief: as §1

SP140L = conditions: GST-tagged SP140L; sheet Array Heatmap; each array performed twice, total n = 4
Method in brief: as §1

TAF3 = conditions: GST-tagged TAF3; sheet Array Heatmap; each array performed twice, total n = 4
Method in brief: as §1

Row | Substance | Array Heatmap signal (histone peptide microarray) (AIRE (PP)) | Array Heatmap signal (histone peptide microarray) (BAZ2B) | Array Heatmap signal (histone peptide microarray) (BPTF (PB)) | Array Heatmap signal (histone peptide microarray) (CHD4 (PPCC)) | Array Heatmap signal (histone peptide microarray) (CHD5 (PCC)) | Array Heatmap signal (histone peptide microarray) (CHD5 (PPCC)) | Array Heatmap signal (histone peptide microarray) (DIDO1) | Array Heatmap signal (histone peptide microarray) (DPF2 (PPC2W2)) | Array Heatmap signal (histone peptide microarray) (ING2) | Array Heatmap signal (histone peptide microarray) (ING3) | Array Heatmap signal (histone peptide microarray) (ING4) | Array Heatmap signal (histone peptide microarray) (ING5) | Array Heatmap signal (histone peptide microarray) (KDM4C (TTP)) | Array Heatmap signal (histone peptide microarray) (KDM5A (1)) | Array Heatmap signal (histone peptide microarray) (KDM5B (1)) | Array Heatmap signal (histone peptide microarray) (KDM5B (3)) | Array Heatmap signal (histone peptide microarray) (MLL5) | Array Heatmap signal (histone peptide microarray) (PHF13) | Array Heatmap signal (histone peptide microarray) (PHF21A) | Array Heatmap signal (histone peptide microarray) (PHF23) | further results
1 | H3 (1-20): unmodified H3 N-terminal peptide (1–20) | 0.4007 | 0.438 | 0.3262 | 0.5925 | 0.7444 | 0.5462 | 0.7104 | 0.6767 | 0.5908 | 0.4575 | 0.425 | 0.3305 | 0.431 | 0.4331 | 0.6198 | 0.5464 | 0.5452 | 0.5761 | 0.4449 | 0.5836 | relative binding (CHD4 (PPCC); peptide microarray, reader 0.5 μM, n = 4): no difference in binding; Array Heatmap signal (histone peptide microarray) (PHF2): 0.5688; Array Heatmap signal (histone peptide microarray) (PHF8): 0.3331; Array Heatmap signal (histone peptide microarray) (PHRF1 (RP)): 0.67; binding preference (PHRF1 (RP); peptide microarray, reader 0.5 μM, n = 4, listed as H3K4me0): strong preference for H3K4me0; also recorded: specifically bound H3K4me0 over K4me; Array Heatmap signal (histone peptide microarray) (RAG2): 0.2786; Array Heatmap signal (histone peptide microarray) (SP140L): 0.461; Array Heatmap signal (histone peptide microarray) (TAF3): 0.2842
2 | H3K4me1: H3 1-20 [Peptide H3K4me1] | 0.5018 | 0.4995 | 0.3638 | 0.5818 | 0.8603 | 0.5953 | 0.6429 | 0.7192 | 0.606 | 0.5265 | 0.4885 | 0.3865 | 0.5341 | 0.4924 | 0.6949 | 0.6104 | 0.5428 | 0.6545 | 0.4917 | 0.579 | Array Heatmap signal (histone peptide microarray) (PHF2): 0.5242; Array Heatmap signal (histone peptide microarray) (PHF8): 0.3997; Array Heatmap signal (histone peptide microarray) (PHRF1 (RP)): 0.6701; Array Heatmap signal (histone peptide microarray) (RAG2): 0.3065; Array Heatmap signal (histone peptide microarray) (SP140L): 0.3684; Array Heatmap signal (histone peptide microarray) (TAF3): 0.2998
